{"source": "paper PMC7179297", "about": "“Preclinical Antimalarial Combination Study of M5717, a Plasmodium falciparum Elongation Factor 2 Inhibitor, and Pyronaridine, a Hemozoin Formation Inhibitor” (Antimicrobial Agents and Chemotherapy, 2020)", "key": {"[1]": {"test_system": "P. falciparum NF54 strain", "assay": "[3H]hypoxanthine incorporation assay, individual drugs", "assay_type": "cell-based", "conditions": "Plasmodium falciparum, 72 h", "description": "IC50 and drug interaction studies were performed as previously described ([27], [28]). […] Cultures were harvested onto glass fiber filters, washed, and the radioactivity was counted using a MicroBetaplate liquid scintillation counter and recorded as counts per minute (cpm) per well. Results are expressed as a percentage of the untreated controls (see the supplemental material for more details). page 2: 25 In vitro isobolograms 26 Compounds were tested against intraerythrocytic forms of P. falciparum derived from asynchronous stock cultures 27 of lab strain NF54 (Schiphol airport strain of unknown origin), as previously described.i,ii The culture medium was […] 29 mM HEPES, 25 mM NaHCO3 (pH 7.3), 0.36 mM hypoxanthine and 100 μg/mL neomycin. Human type A+ 30 erythrocytes served as host cells. […] 31 in humidified modular chambers. Testing of the individual drugs was carried out in 96-well microtiter plates. The 32 compounds were dissolved in DMSO (10 mg/mL), prediluted in hypoxanthine-free culture medium and titrated in […] After addition of an equal volume of parasite culture with a parasitemia of […] Parasite growth was measured by the incorporation of radiolabelled [3H]hypoxanthine (0.25 µCi in […] 37 assay duration) prior to the termination of the test. Cultures were harvested onto glass-fiber filters and washed with 38 distilled water. The radioactivity was counted using a MicroBetaplate liquid scintillation counter (Wallac, Zürich, 39 Switzerland) and the results recorded as counts per minute (cpm) per well at each drug concentration and expressed 40 as percentage of the untreated controls. Fifty percent inhibitory concentrations (IC50) were determined by linear 41 interpolation.v 42 43 For data interpretation, the IC50s of the drugs in combination were expressed as fractions of the IC50s of the drugs 44 alone. These fractions were called “Fractional Inhibitory Concentrations” (FIC) for drug A and for drug B, 45 respectively. 46 FIC Drug A = IC50 A (B) IC50 A […] 49 50 Formulation 51 Pyronaridine (tetraphosphate salt) and […] (succinate salt) were solubilized in a vehicle consisting of 70% […] 54 55 2"}, "[2]": {"conditions": "400 mg in healthy volunteers ref 16; cited from earlier work"}, "[3]": {"test_system": "P. falciparum eEF2 mutant parasites", "design": "method as in PMID 26085270", "conditions": "cited from earlier work"}}, "note": "Like-named read-outs stand apart in the source and are kept apart here.", "data": [{"smiles": "COc1ccc2nc3cc(Cl)ccc3c(Nc3cc(CN4CCCC4)c(O)c(CN4CCCC4)c3)c2n1", "note": "[pyronaridine]", "values": [{"measurement": "EC50", "setting": "[1]", "value": 3.5, "unit": "nM"}, {"measurement": "t1/2", "setting": "[2]", "value": 10, "unit": "days"}]}, {"smiles": "O=C(NCCN1CCCC1)c1cc(-c2ccc(CN3CCOCC3)cc2)nc2ccc(F)cc12", "note": "[M5717]", "values": [{"measurement": "EC50", "setting": "[1]", "value": 0.3, "unit": "nM"}, {"measurement": "IC50 fold shift", "setting": "[3]; eEF2 mutation L755F ref 7", "value": 660, "unit": "fold"}, {"measurement": "IC50 fold shift", "setting": "[3]; eEF2 mutation P754A ref 7", "value": 135, "unit": "fold"}, {"measurement": "IC50 fold shift", "setting": "[3]; eEF2 mutation P754S ref 7", "value": 200, "unit": "fold"}, {"measurement": "fold shift of IC50", "setting": "[3]; eEF2 mutation Y186N, high-grade resistance ref 7", "value": "> 3,000 fold"}]}]}
